Test results as given in patent US11912682B2, “Isoindolinone compounds” (Monte Rosa Therapeutics, Inc., priority 2021, dated 2024).
Read-outs that look alike come from different tables or passages of the source.

Legend:
[1] = target: GSPT1 (Homo sapiens (Human), UniProt P15170+Q96SW2); assay: immunofluorescence assay for GSPT1 degradation in CAL-51 cells (Example 4); format: cell-based
Method in brief: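 CAL-51 cells on fibronectin-coated plates were treated 6 h with serial dilutions (30 μM to 0.1 nM), then fixed and immunostained for GSPT1 with DAPI and phalloidin counterstains. Per-cell mean GSPT1 intensity from high-content imaging, normalized to controls; DC50 by non-linear regression.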

[2] = target: Full length wild-type cereblon CRBN (Homo sapiens (Human), UniProt Q96SW2); assay: fluorescence polarization (FP) assay, cereblon binding
Method in brief: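 Full-length wild-type CRBN (80.0 nM as dispensed) preincubated 30 min at room temperature with compound in HEPES pH 8.0, NaCl, TCEP, 0.05% Tween 20.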

[3] = 6 hours, read-out: Activity for GSPT1 degradation, Code (DC50)
[4] = GSPT1 degradation, read-out: DC50 value

Chain of GSPT1 (P15170 whole entry): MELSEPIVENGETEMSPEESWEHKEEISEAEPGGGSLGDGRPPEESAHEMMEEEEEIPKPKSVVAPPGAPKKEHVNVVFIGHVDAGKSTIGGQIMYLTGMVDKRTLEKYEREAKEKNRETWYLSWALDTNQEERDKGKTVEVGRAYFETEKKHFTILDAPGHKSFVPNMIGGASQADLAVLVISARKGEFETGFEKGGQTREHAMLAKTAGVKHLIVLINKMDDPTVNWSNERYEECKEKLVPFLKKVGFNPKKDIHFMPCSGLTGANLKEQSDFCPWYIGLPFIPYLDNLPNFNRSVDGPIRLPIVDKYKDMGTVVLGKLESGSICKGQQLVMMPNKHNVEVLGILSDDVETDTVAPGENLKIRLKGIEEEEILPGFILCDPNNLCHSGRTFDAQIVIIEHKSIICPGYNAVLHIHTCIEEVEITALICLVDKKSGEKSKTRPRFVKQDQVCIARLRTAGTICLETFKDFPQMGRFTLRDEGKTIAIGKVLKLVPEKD
Chain of GSPT1 (Q96SW2 whole entry): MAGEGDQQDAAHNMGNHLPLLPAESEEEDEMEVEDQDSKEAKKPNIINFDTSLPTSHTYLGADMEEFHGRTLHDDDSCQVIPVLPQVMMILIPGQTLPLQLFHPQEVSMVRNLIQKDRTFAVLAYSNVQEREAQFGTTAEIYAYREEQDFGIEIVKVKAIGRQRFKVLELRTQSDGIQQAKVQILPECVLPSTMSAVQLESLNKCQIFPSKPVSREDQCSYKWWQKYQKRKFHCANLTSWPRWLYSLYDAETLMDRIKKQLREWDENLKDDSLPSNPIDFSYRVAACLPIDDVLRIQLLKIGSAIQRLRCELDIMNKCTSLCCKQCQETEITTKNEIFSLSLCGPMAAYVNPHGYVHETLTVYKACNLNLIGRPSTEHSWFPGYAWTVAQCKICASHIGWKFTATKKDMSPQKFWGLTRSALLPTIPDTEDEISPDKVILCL
Chain of GSPT1 (Q16531 2-1140 partner): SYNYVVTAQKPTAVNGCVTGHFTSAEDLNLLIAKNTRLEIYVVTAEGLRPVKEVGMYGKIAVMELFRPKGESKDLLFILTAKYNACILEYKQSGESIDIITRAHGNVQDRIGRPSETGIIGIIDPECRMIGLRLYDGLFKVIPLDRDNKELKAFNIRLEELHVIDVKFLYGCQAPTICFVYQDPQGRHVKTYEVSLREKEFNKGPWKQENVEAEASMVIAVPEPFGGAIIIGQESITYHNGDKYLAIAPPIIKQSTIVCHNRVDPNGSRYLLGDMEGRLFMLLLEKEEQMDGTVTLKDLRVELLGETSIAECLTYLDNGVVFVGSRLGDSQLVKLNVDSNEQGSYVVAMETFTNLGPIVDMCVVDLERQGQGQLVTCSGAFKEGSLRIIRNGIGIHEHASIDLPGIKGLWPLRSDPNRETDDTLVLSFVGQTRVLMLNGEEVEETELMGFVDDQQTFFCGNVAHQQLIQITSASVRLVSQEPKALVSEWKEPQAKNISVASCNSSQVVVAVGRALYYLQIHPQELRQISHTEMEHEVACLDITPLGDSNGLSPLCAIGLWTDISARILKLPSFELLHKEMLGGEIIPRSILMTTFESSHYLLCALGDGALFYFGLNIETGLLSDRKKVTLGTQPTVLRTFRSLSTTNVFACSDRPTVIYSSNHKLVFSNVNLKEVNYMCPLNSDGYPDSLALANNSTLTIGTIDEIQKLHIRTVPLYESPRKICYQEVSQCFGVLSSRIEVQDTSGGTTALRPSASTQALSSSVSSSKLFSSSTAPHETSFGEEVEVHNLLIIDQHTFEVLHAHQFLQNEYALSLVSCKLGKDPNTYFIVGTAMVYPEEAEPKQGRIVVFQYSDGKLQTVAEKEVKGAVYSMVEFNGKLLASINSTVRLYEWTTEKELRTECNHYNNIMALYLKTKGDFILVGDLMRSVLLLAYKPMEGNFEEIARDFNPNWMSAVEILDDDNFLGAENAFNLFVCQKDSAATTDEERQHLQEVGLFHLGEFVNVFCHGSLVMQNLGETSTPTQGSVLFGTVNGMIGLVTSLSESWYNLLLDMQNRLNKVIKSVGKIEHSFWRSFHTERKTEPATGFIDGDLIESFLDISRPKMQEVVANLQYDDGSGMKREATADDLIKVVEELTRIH
Chain of Full length wild-type cereblon CRBN (Q96SW2 whole entry): as the sequence (Q96SW2 whole entry) above

Row | SMILES | DC50 [1, 3] [nM] | IC50 ([2]; read-out: IC50 value) [nM] | DC50 [1, 4] [nM] | IC50 ([2]; read-out: rFP IC50) [nM]
1 | Cc1c(Cl)cc(NC(=O)OCc2ccc3c(c2)C(=O)N(C2CCC(=O)NC2=O)C3)cc1OC1CCNC1 (centres unmarked) [Compound 44] | 30 to 300 | < 1100 | – | –
2 | Cc1c(Cl)cc(NC(=O)OCc2ccc3c(c2)C(=O)N(C2CCC(=O)NC2=O)C3)cc1OC1CCN(C)C1 (centres unmarked) [Compound 68] | < 30 | < 1100 | ≤ 30 | –
3 | O=C1CCC(N2Cc3ccc(COC(=O)NCc4ccccc4)cc3C2=O)C(=O)N1 (centres unmarked) [Compound 98] | > 300 | < 1100 | – | –
4 | CN1CCC(Oc2cc(Cl)cc(NC(=O)OCc3ccc4c(c3)C(=O)N(C3CCC(=O)NC3=O)C4)c2)C1 (centres unmarked) [Compound 46] | < 30 | – | ≤ 30 | < 500
5 | O=C1CCC(N2Cc3ccc(COC(=O)Nc4ccc5c(c4)OCCC5)cc3C2=O)C(=O)N1 (centres unmarked) [Compound 92] | < 30 | < 1100 | ≤ 30 | –
6 | COc1cc(NC(=O)OCc2ccc3c(c2)C(=O)N(C2CCC(=O)NC2=O)C3)ccc1C (centres unmarked) [Compound 37] | 30 to 300 | – | – | > 1700
7 | O=C1CCC(N2Cc3ccc(COC(=O)Nc4cc(OC(F)(F)F)ccn4)cc3C2=O)C(=O)N1 (centres unmarked) [Compound 59] | 30 to 300 | – | – | < 500
8 | O=C1CCC(N2Cc3ccc(COC(=O)Nc4cccc(OC5CC5)c4)cc3C2=O)C(=O)N1 (centres unmarked) [Compound 93] | 30 to 300 | < 1100 | – | –
9 | O=C1CCC(N2Cc3ccc(COC(=O)Nc4cnc(-c5ccccc5)c(F)c4)cc3C2=O)C(=O)N1 (centres unmarked) [Compound 85] | < 30 | – | ≤ 30 | > 1700
10 | Cc1cc(NC(=O)OCc2ccc3c(c2)C(=O)N(C2CCC(=O)NC2=O)C3)cc(C)c1C#N (centres unmarked) [Compound 108] | 30 to 300 | – | – | < 500
11 | O=C1CCC(N2Cc3ccc(COC(=O)Nc4cc(CN5CC6CC5CO6)cc(OC(F)F)c4)cc3C2=O)C(=O)N1 (centres unmarked) [Compound 100] | 30 to 300 | < 1100 | – | –
12 | CC(C)CCNC(=O)OCc1ccc2c(c1)C(=O)N(C1CCC(=O)NC1=O)C2 (centres unmarked) [Compound 27] | > 300 | – | – | > 1700
13 | O=C1CCC(N2Cc3ccc(COC(=O)Nc4cc(F)cc(OC(F)F)c4)cc3C2=O)C(=O)N1 (centres unmarked) [Compound 31] | 30 to 300 | – | – | > 1700
14 | O=C1CCC(N2Cc3ccc(COC(=O)NC45CC(c6ccccc6)(C4)C5)cc3C2=O)C(=O)N1 (centres unmarked) [Compound 126, (2-(2,6-dioxopiperidin-3-yl)-3-oxoisoindolin-5-yl)methyl (3-phenylbicyclo[1.1.1]pentan-1-yl carbamate] | < 30 | – | ≤ 30 | < 500
15 | O=C1CCC(N2Cc3ccc(COC(=O)Nc4cc(OC(F)(F)F)ccc4Cl)cc3C2=O)C(=O)N1 (centres unmarked) [Compound 125, (2-(2,6-dioxopiperidin-3-yl)-3-oxoisoindolin-5-yl)methyl(2-chloro-5-(trifluoromethoxy)phenyl)carbamate] | > 300 | – | – | > 1700
16 | CC1CCN(c2ccc(NC(=O)OCc3ccc4c(c3)C(=O)N(C3CCC(=O)NC3=O)C4)cn2)C1 (centres unmarked) [Compound 69] | < 30 | – | ≤ 30 | < 500
17 | O=C1CCC(N2Cc3ccc(COC(=O)Nc4ccc(N5CCOCC5)nc4)cc3C2=O)C(=O)N1 (centres unmarked) [Compound 76] | 30 to 300 | < 1100 | – | –
18 | O=C1CCC(N2Cc3ccc(COC(=O)Nc4ccc(-c5ccccc5)cn4)cc3C2=O)C(=O)N1 (centres unmarked) [Compound 143, (2-(2,6-dioxopiperidin-3-yl)-3-oxoisoindolin-5-yl)methyl (5-phenylpyridin-2-yl)carbamate] | 30 to 300 | – | – | > 1700
19 | O=C1CCC(N2Cc3ccc(COC(=O)N4CCCC4)cc3C2=O)C(=O)N1 (centres unmarked) [Compound 26] | > 300 | < 1100 | – | –

The remaining lines, values ahead:

Row | DC50 [1, 3] [nM] | IC50 ([2]; read-out: IC50 value) [nM] | DC50 [1, 4] [nM] | IC50 ([2]; read-out: rFP IC50) [nM] | SMILES
20 | 30 to 300 | – | – | < 500 | O=C1CCC(N2Cc3ccc(COC(=O)Nc4ccc(N5CCCCC5)nn4)cc3C2=O)C(=O)N1 (centres unmarked) [Compound 75]
21 | > 300 | – | – | < 500 | CN1CCN(c2ccc(NC(=O)OCc3ccc4c(c3)C(=O)N(C3CCC(=O)NC3=O)C4)cn2)CC1 (centres unmarked) [Compound 82]
22 | < 30 | – | ≤ 30 | < 500 | CC1(c2ccc(NC(=O)OCc3ccc4c(c3)C(=O)N(C3CCC(=O)NC3=O)C4)cn2)CC1 (centres unmarked) [Compound 152, (2-(2,6-dioxopiperidin-3-yl)-3-oxoisoindolin-5-yl)methyl (6-(1-methylcyclopropyl)pyridin-3-yl)carbamate]
23 | < 30 | – | ≤ 30 | > 1700 | O=C1CCC(N2Cc3ccc(COC(=O)Nc4ccc(-c5ccccn5)cc4)cc3C2=O)C(=O)N1 (centres unmarked) [Compound 50]
24 | > 300 | – | – | > 1700 | CC(OC(=O)Nc1cccc(OC(F)(F)F)c1)c1ccc2c(c1)C(=O)N(C1CCC(=O)NC1=O)C2 (centres unmarked) [Compound 121, 1-(2-(2,6-dioxopiperidin-3-yl)-3-oxoisoindolin-5-yl)ethyl(3-(trifluoromethoxy)phenyl)carbamate]
25 | < 30 | < 1100 | ≤ 30 | – | Cc1c(F)cc(NC(=O)OCc2ccc3c(c2)C(=O)N(C2CCC(=O)NC2=O)C3)cc1CN1CCOCC1 (centres unmarked) [Compound 41]
26 | 30 to 300 | – | – | < 500 | Cc1c(Cl)cc(NC(=O)OCc2ccc3c(c2)C(=O)N(C2CCC(=O)NC2=O)C3)cc1OCC1CCN(C)C1 (centres unmarked) [Compound 70]
27 | < 30 | – | ≤ 30 | < 500 | C[C@@H]1CCCN1c1ccc(NC(=O)OCc2ccc3c(c2)C(=O)N(C2CCC(=O)NC2=O)C3)cn1 (some centres unmarked) [Compound 157]
28 | > 300 | – | – | < 500 | O=C1CCC(N2Cc3ccc(COC(=O)N4CCN(c5ccccc5)CC4)cc3C2=O)C(=O)N1 (centres unmarked) [Compound 36]
29 | 30 to 300 | – | – | < 500 | Cc1cc(C#N)cc(NC(=O)OCc2ccc3c(c2)C(=O)N(C2CCC(=O)NC2=O)C3)c1 (centres unmarked) [Compound 112, (2-(2,6-dioxopiperidin-3-yl)-3-oxoisoindolin-5-yl)methyl (3-cyano-5-methylphenyl)carbamate]
30 | > 300 | < 1100 | – | – | COc1ccccc1CNC(=O)OCc1ccc2c(c1)C(=O)N(C1CCC(=O)NC1=O)C2 (centres unmarked) [Compound 97]
31 | 30 to 300 | – | – | < 500 | Cc1cc(NC(=O)OCc2ccc3c(c2)C(=O)N(C2CCC(=O)NC2=O)C3)cc(C)c1F (centres unmarked) [Compound 124, (2-(2,6-dioxopiperidin-3-yl)-3-oxoisoindolin-5-yl)methyl (4-fluoro-3,5-dimethylphenyl)carbamate]
32 | < 30 | – | ≤ 30 | > 1700 | Cc1c(CN2CCOCC2)cc(NC(=O)OCc2ccc3c(c2)C(=O)N(C2CCC(=O)NC2=O)C3)cc1OC(F)(F)F (centres unmarked) [Compound 34]
33 | > 300 | – | – | > 1700 | O=C1CCC(N2Cc3ccc(COC(=O)NCC4CC4)cc3C2=O)C(=O)N1 (centres unmarked) [Compound 22]
